Here are results for 1 compound from US7732487B2, “Method for treating a disease or condition responsive to opening of C1C-2 channel” (priority 2001, dated 2010).

For assay [1], the system named is male Wistar rats. Nature of the assay: Indomethacin induced ulcer model. The class given is in vivo, rat. Particulars: 2 μg/kg oral. As for the experimental part:
(§1) Effects on acute ulcer was determined by means of water-immersion restraint stress induced ulcer model and indomethacin induced ulcer model.
(§2) Test substance 1 was orally administered to male Wistar rats (weight: 180-210 g) that had been fasted for 24 hours. In the water-immersion restraint stress induced ulcer model, 10 minutes after the oral administration of test substance 1, the rats were bound in a stress cage and immersed in water at 23° C. up to the level of their chest xiphisternums. Six hours after the immersion, the animals were killed by cervical dislocation. In the indomethacin induced ulcer model, immediately after the oral administration of test substance 1 or 2, indomethacin 10 mg/kg was orally administered. Five hours after the administration, the animals were killed by cervical dislocation. The stomachs removed from the animals were fixed with 1% formalin and then dissected along the greater curvatures. The major axis (mm) of each ulcer formed in the stomach was measured. The major axes of the ulcers in each animal were totaled, which were expressed as ulcer coefficients. Based on the ulcer coefficients of the control group and those of the groups receiving test substances, the ulcer inhibitory rates were calculated.

Assay [2] concerns male Wistar rats. Put plainly: Antipneumonedema effect, ammonium sulfate induced, in rats. The class given is in vivo, rat. As for the experimental part: Test substance 1 of 0.1 or 0.01 mg/kg in 5 mL/kg of vehicle was subcutaneously administered to male Wistar rats (7 weeks old, weight: 200-250 g). The control group received the same amount of the vehicle (physiological Saline). Thirty minutes after the administration, ammonium sulfate […] was administered to the abdominal cavity of the rats. The survival rate at 30 minutes after the administration of ammonium sulfate was calculated. Animals that had survived until 30 minutes after the administration of ammonium sulfate were killed under chloroform, and their lungs were removed to measure the weights. Regarding animals that had been dead by 30 minutes after the administration of ammonium sulfate, their lungs were removed immediately after their death to measure the weights. The lung-weight of the respective groups was compared to the lung-weight of the normal group, which received no ammonium sulfate. Based on the lung-weight measurements, the inhibitory rate of lung-weight increase of the group receiving test substance 1 as compared to that of the control group was calculated.

In assay [3] the test system is male Wistar rats. Nature of the assay: Amount of intestinal fluid and chloride ion concentration in intestinal fluid in rat. The class given is in vivo. Particulars: 30 minutes after administration, Mean ± S.E. The method, then: Test substance 1: 13,14-dihydro-15-keto-16,16-difluoro-prostaglandin E1, which is a ClC-2 channel opener was used. The test substance 1 of 10 or 100 μg/kg in 5 mL/kg of the vehicle was orally administered to male Wistar rats (six weeks old, weight: 180-210 g) that had been fasted for at least 16 hours. The control group received the same volume of the vehicle (0.5% ethanol and 0.01% polysorbate 80 in distilled water). Thirty minutes after the administration, the animals underwent laparotomy under ether anesthesia. The first portion of the duodenum and end portion of the ileum were ligated respectively and the bowel was removed. The intestinal fluid of each animal was collected from the removed bowel and the amount was determined. After the intestinal fluid was centrifuged by 10,000×g for 5 minutes, its supernatant was collected. The chloride ion concentration in the supernatant was measured with a chloride counter (CL-7, Hiranuma Sangyo Co., Ltd.). Dunnett's test was used in comparing the control group and the test groups receiving test substance 1 in each dose. P values less than 0.05 were considered to be statistically significant.

Another assay deals with male white rabbit. Put plainly: Amount of lacrimal fluid and chloride ion concentration in lacrimal fluid in rabbit. The settings on record: 0.001% eye drop, 30 μL/eye, two hours after instillation, Mean ± S.E. Format: in vivo. As for the experimental part:
An eye drop composition comprising 0.001% of the test substance 1 was instilled to male white rabbit in the amount of 30 μL/eye. The control group received the same amount of eye drop vehicle. […] Then the amount of lacrimal fluid was measured from the length of wetting area on the paper filter with the scale on it. […] The collected lacrimal fluid was diluted five fold with distilled water and chloride ion concentration in the lacrimal fluid was measured with a chloride counter (CL-7, Hiranuma Sangyo Co. Ltd., Japan). Student's t-test and Wilcoxon's test were used in comparing the control group and the group receiving test substance 1. P values less than 0.05 were considered to be statistically significant.

Assay [4] has as its system male Wistar rats. Put plainly: Water-immersion restraint stress induced ulcer model. The class given is in vivo, rat. The settings on record: for Ulcer Coefficient: Mean ± S.E. As for the experimental part:
as §1, §2

The test system of another assay is ddY male mice. Nature of the assay: Antianoxia effect: duration of gasping after beheading in mice. Format: in vivo, mouse. The settings on record: 0.3 mg/kg subcutaneous, 30 minutes before beheading, Mean ± S.D. The method, then: Test substance 1 of 0.3 mg/kg in 10 mL/kg of vehicle was subcutaneously administered to ddY male mice (5 weeks old, weight: 27-30 g). The control group received the vehicle. Thirty minutes after the administration, the mice were beheaded with guillotine. Duration of gasping shown after beheading was measured.

For `CCCCC(F)(F)C(=O)CC[C@H]1[C@H](O)CC(=O)[C@@H]1CCCCCCC(=O)O` [Test Sub. 1, 13,14-dihydro-15-keto-16,16-difluoro-prostaglandin E1], the results for the “Ulcer Inhibitory Rate” value in the assay with male Wistar rats [1], in the assay on male Wistar rats [4] (30 μg/kg oral) and with male Wistar rats [4] (100 μg/kg oral) were 44%, 54.3% and 85.3%, respectively. The “Ulcer Coefficient” value is 27.9 ± 5.1 with male Wistar rats [1] (Mean ± S.E.), 13.4 ± 2.0 in the assay on male Wistar rats [4] (30 μg/kg oral) and 4.3 ± 1.9 in the assay with male Wistar rats [4] (100 μg/kg oral). Moreover, the “Inhibitory Rate of Lung-weight Increase” value in the assay with male Wistar rats [2] (0.01 mg/kg subcutaneous, compared to control group) is reported as 47%. In the assay on male Wistar rats [2] (0.1 mg/kg subcutaneous, 30 minutes after ammonium sulfate), the “Surviving Rate” value is 60%. Also, the “Amount of Intestinal Fluid” value in the assay with male Wistar rats [3] (10 μg/kg oral) was determined as 3.3 ± 0.3 mL; with male Wistar rats [3] (100 μg/kg oral) it was 5.3 ± 0.2 mL. Besides, the “Chloride Ion Concentration in Intestinal Fluid” value in the assay on male Wistar rats [3] (10 μg/kg oral) came out at 110.1 ± 5.6 mEq/L; with male Wistar rats [3] (100 μg/kg oral), 126.6 ± 2.4 mEq/L. For the same compound, in the assay on male white rabbit, the “Chloride Ion Concentration in Lacrimal Fluid” value is 152.9 ± 7.7^(##) mEq/L. The “Amount of Lacrimal Fluid” value with male white rabbit (Schirmer's Paper) was 11.5 ± 0.7 mL. Moreover, the “Duration of Gasping” value with ddY male mice is 24.1 ± 1.9.
